Source: patent US20220046923A1, “HERBICIDAL CINNOLINIUM COMPOUNDS” (SYNGENTA CROP PROTECTION AG, priority 2018, published 2022)

Tests used:
Assay in all cases: Post-emergence efficacy, glasshouse spray test
Assay type in all cases: in vivo
[1] = tested on: Lolium perenne (LOLPE); conditions: Lolium perenne, post-emergence, 312 h, evaluated after 13 days, read-out: Control of weed species LOLPE after post-emergence application (100=total damage to plant; 0=no damage to plant); for pest or weed control at 1000 g/ha: application rate 1000 g/Ha; for pest or weed control at 500 g/ha: application rate 500 g/Ha
Method: (§1) Seeds of a variety of test species were sown in standard soil in pots. After cultivation for 14 days (post-emergence) under controlled conditions in a glasshouse (at 24/16° C., day/night; 14 hours light; 65% humidity), the plants were sprayed with an aqueous spray solution derived from the dissolution of the technical active ingredient formula (I) in a small amount of acetone and a special solvent and emulsifier mixture referred to as IF50 (11.12% Emulsogen EL360 TM+44.44% N-methylpyrrolidone+44.44% Dowanol DPM glycol ether), to create a 50 g/l solution which was then diluted to required concentration using 0.25% or 1% Empicol ESC70 (Sodium lauryl ether sulphate)+1% ammonium sulphate as diluent. The test plants were then grown in a glasshouse under controlled conditions (at 24/16° C., day/night; 14 hours light; 65% humidity) and watered twice daily. After 13 days the test was evaluated (100=total damage to plant; 0=no damage to plant).
(§2) Ipomoea hederacea (IPOHE), Euphorbia heterophylla (EPHHL), Chenopodium album (CHEAL), Amaranthus palmeri (AMAPA), Lolium perenne (LOLPE), Digitaria sanguinalis (DIGSA), Eleusine indica (ELEIN), Echinochloa crus-galli (ECHCG), Setaria faberi (SETFA)

[2] = tested on: Eleusine indica (ELEIN); conditions: Eleusine indica, post-emergence, 312 h, evaluated after 13 days, read-out: Control of weed species ELEIN after post-emergence application (100=total damage to plant; 0=no damage to plant); for pest or weed control at 1000 g/ha: application rate 1000 g/Ha; for pest or weed control at 500 g/ha: application rate 500 g/Ha
Method: as §1, §2

[3] = tested on: Setaria faberi (SETFA); conditions: Setaria faberi, post-emergence, 312 h, evaluated after 13 days, read-out: Control of weed species SETFA after post-emergence application (100=total damage to plant; 0=no damage to plant); for pest or weed control at 1000 g/ha: application rate 1000 g/Ha; for pest or weed control at 500 g/ha: application rate 500 g/Ha
Method: as §1, §2

[4] = tested on: Amaranthus palmeri (AMAPA); conditions: Amaranthus palmeri, post-emergence, 312 h, evaluated after 13 days, read-out: Control of weed species AMAPA after post-emergence application (100=total damage to plant; 0=no damage to plant); for pest or weed control at 1000 g/ha: application rate 1000 g/Ha; for pest or weed control at 500 g/ha: application rate 500 g/Ha
Method: as §1, §2

[5] = tested on: Digitaria sanguinalis (DIGSA); conditions: Digitaria sanguinalis, post-emergence, 312 h, evaluated after 13 days, read-out: Control of weed species DIGSA after post-emergence application (100=total damage to plant; 0=no damage to plant); for pest or weed control at 1000 g/ha: application rate 1000 g/Ha; for pest or weed control at 500 g/ha: application rate 500 g/Ha
Method: as §1, §2

[6] = tested on: Ipomoea hederacea (IPOHE); conditions: Ipomoea hederacea, post-emergence, 312 h, evaluated after 13 days, read-out: Control of weed species IPOHE after post-emergence application (100=total damage to plant; 0=no damage to plant); for pest or weed control at 1000 g/ha: application rate 1000 g/Ha; for pest or weed control at 500 g/ha: application rate 500 g/Ha
Method: as §1, §2

[7] = tested on: Echinochloa crus-galli (ECHCG); conditions: Echinochloa crus-galli, post-emergence, 312 h, evaluated after 13 days, read-out: Control of weed species ECHCG after post-emergence application (100=total damage to plant; 0=no damage to plant); for pest or weed control at 1000 g/ha: application rate 1000 g/Ha; for pest or weed control at 500 g/ha: application rate 500 g/Ha
Method: as §1, §2

[8] = tested on: Chenopodium album (CHEAL); conditions: Chenopodium album, post-emergence, 312 h, evaluated after 13 days, read-out: Control of weed species CHEAL after post-emergence application (100=total damage to plant; 0=no damage to plant); for pest or weed control at 1000 g/ha: application rate 1000 g/Ha; for pest or weed control at 500 g/ha: application rate 500 g/Ha
Method: as §1, §2

[9] = tested on: Euphorbia heterophylla (EPHHL); conditions: Euphorbia heterophylla, post-emergence, 312 h, evaluated after 13 days, read-out: Control of weed species EPHHL after post-emergence application (100=total damage to plant; 0=no damage to plant); for pest or weed control at 1000 g/ha: application rate 1000 g/Ha; for pest or weed control at 500 g/ha: application rate 500 g/Ha
Method: as §1, §2

| SMILES | pest or weed control at 1000 g/ha [1] [%] | pest or weed control at 1000 g/ha [2] [%] | pest or weed control at 1000 g/ha [3] [%] | pest or weed control at 1000 g/ha [4] [%] | pest or weed control at 1000 g/ha [5] [%] | pest or weed control at 1000 g/ha [6] [%] | pest or weed control at 1000 g/ha [7] [%] | pest or weed control at 1000 g/ha [8] [%] | pest or weed control at 1000 g/ha [9] [%] | pest or weed control at 500 g/ha [1] [%] | pest or weed control at 500 g/ha [2] [%] | pest or weed control at 500 g/ha [3] [%] | pest or weed control at 500 g/ha [4] [%] | pest or weed control at 500 g/ha [5] [%] | pest or weed control at 500 g/ha [6] [%] | pest or weed control at 500 g/ha [7] [%] | pest or weed control at 500 g/ha [8] [%] | pest or weed control at 500 g/ha [9] [%] |
| --- | --- | --- | --- | --- | --- | --- | --- | --- | --- | --- | --- | --- | --- | --- | --- | --- | --- | --- |
| O=S(=O)([O-])CCC[n+]1ccc2ccccc2n1 [Compound A67] | 80 | 80 | 80 | 100 | 80 | 80 | 60 | 90 | 70 |  |  |  |  |  |  |  |  |  |
| CC(C(=O)OC(C)(C)C)[n+]1ccc2ccccc2n1 (stereo not drawn) [Compound A116] |  |  |  |  |  |  |  |  |  | 20 | 30 | 30 | 60 | 40 | 10 | 30 | 50 | 30 |
| O=S(=O)([O-])CC[n+]1ccc2cc(F)ccc2n1 [Compound A82] | 30 | 60 | 30 | 90 | 40 | 40 | 20 | 70 | 60 |  |  |  |  |  |  |  |  |  |
| O=P(O)(O)CCC[n+]1ccc2ccccc2n1 [Compound A70] | 40 | 90 | 60 | 80 | 80 | 100 | 40 | 90 | 80 |  |  |  |  |  |  |  |  |  |
| OCC[n+]1ccc2ccccc2n1 [Compound A119] | 20 | 40 | 50 | 90 | 50 | 50 | 20 | 90 | 80 |  |  |  |  |  |  |  |  |  |
| O=S(=O)(O)CC[n+]1cc(C2CC2)c2ccccc2n1 [Compound A79] | 10 | 10 | 30 | 60 | 20 | 40 | 20 | 30 | 40 |  |  |  |  |  |  |  |  |  |
| O=S(=O)([O-])CC[n+]1ccc2cc(-c3ccccc3)ccc2n1 [Compound A53] |  |  |  |  |  |  |  |  |  | 0 | 40 | 10 | 20 | 10 | 10 | 0 | 0 | 20 |
